ED50 and LD50 data for 8 compounds are collected here from US4297280A, “4,1-Benzoxazepines” (Shionogi & Co., Ltd., priority 1978, dated 1981).

A short description of series [1]: antipentylenetetrazol test (pentylenetetrazol 125 mg/kg s.c.). It is filed as in vivo. The following applies: sc; SLC ddY male mouse, 20-24 g; pentylenetetrazol preliminarily administered at 125 mg/kg s.c.; read-out: ED50 anti-pentylenetetrazol test. The protocol:
(§1) *^1 test animal: SLC ddY male mouse, 20-24 g of body weight
*^2 pentylenetetrazol was preliminarily administered at a dose of 125
mg per 1 kg of body weight in subcutaneous injection.

Series [2] in a line: acute lethality (LD50). Conditions: in vivo; DS male mouse, 20-24 g.
Series [3] can be described thus: rotarod performance test. In kind it is in vivo. Conditions: SLC ddY male mouse, 20-24 g.
Excerpt: as §1

Structures can show the parent of a compound that is named as a salt.

Usually ED50 stands for the dose at which the effect has come halfway, by size or by number of responders. As a reminder, the LD50 is the dose expected to kill half of the subjects tested. Higher therefore signals lower toxicity. In the case of `CCOC1(c2ccccc2Cl)OCc2nnc(CN)n2-c2ccc(Cl)cc21` (centres unmarked) [drawing 27 (OC2H5, 1/2 succinate)], the ED50 was found to be 1.14 mg/kg in series [1] and 33.5 mg/kg in series [3]. Moreover, the LD50 in series [2] is more than 1000 mg/kg.
For `NCc1nnc2n1-c1ccc(Cl)cc1C(c1ccccc1Cl)OC2` (centres unmarked) [drawing 27 (H, hydrobromide)], in that order: 2.49 mg/kg, 24.1 mg/kg and more than 1000 mg/kg.
Take `Cc1nnc2n1-c1ccc(Cl)cc1C(c1ccccc1Cl)OC2` (centres unmarked): the figures for the ED50 in series [1] and in series [3] were 0.74 mg/kg and 30.6 mg/kg, respectively. Besides, the LD50 in series [2] is more than 1000 mg/kg.
Regarding `CN1C(=O)CN=C(c2ccccc2)c2cc(Cl)ccc21` [diazepam, reference compound], the ED50 in series [1] turned out to be 1.2 mg/kg; in series [3] it was 13.4 mg/kg.
On to `CN(C)C=C1N=C2COC(c3ccccc3Cl)c3cc(Cl)ccc3N2C1=O` (centres unmarked), for which the figures for the ED50 in series [1] and in series [3] were 1.6 mg/kg and 73.5 mg/kg, respectively. The compound further yielded a median lethal dose (LD50) in series [2] of more than 1000 mg/kg.
Consider `Cc1nnc2n(c1=O)-c1ccc(Cl)cc1C(c1ccccc1Cl)OC2` (centres unmarked), for which the ED50 in series [1] was found to be 0.75 mg/kg; in series [3] it was 24.5 mg/kg. The LD50 in series [2] is more than 1000 mg/kg.
For `CN1CCN(C=C2N=C3COC(c4ccccc4Cl)c4cc(Cl)ccc4N3C2=O)CC1` (centres unmarked), in that order: 3.28 mg/kg, more than 100 mg/kg and more than 1000 mg/kg.
For `CN1CCN=C(c2ccccc2)c2cc(Cl)ccc21` [medazepam, reference compound], in that order: 4.76 mg/kg, 104 mg/kg and more than 1000 mg/kg.
